Laboratory results: ChEMBL document CHEMBL5465560, “Selectivity Literature for EUbOPEN Chemogenomic Library” (2024)

Legend:
[1] = target: 5-hydroxytryptamine receptor 2B (Homo sapiens, UniProt P41595); experiment: Selectivity interaction (Eurofins safety panel) EUB0001564a HTR2B; conditions: at 10 µM
Activated CDC42 kinase 1 = Activated CDC42 kinase 1 (Homo sapiens, UniProt Q07912); conditions: at 10 µM
[2] = target: T1, Serine/threonine-protein kinase TNNI3K (Homo sapiens) (UniProt Q59H18); experiment: Selectivity interaction (KinomeScan (DiscoverX)) EUB0000695a TNNI3K; conditions: at 100 nM
T1 sequence (whole entry): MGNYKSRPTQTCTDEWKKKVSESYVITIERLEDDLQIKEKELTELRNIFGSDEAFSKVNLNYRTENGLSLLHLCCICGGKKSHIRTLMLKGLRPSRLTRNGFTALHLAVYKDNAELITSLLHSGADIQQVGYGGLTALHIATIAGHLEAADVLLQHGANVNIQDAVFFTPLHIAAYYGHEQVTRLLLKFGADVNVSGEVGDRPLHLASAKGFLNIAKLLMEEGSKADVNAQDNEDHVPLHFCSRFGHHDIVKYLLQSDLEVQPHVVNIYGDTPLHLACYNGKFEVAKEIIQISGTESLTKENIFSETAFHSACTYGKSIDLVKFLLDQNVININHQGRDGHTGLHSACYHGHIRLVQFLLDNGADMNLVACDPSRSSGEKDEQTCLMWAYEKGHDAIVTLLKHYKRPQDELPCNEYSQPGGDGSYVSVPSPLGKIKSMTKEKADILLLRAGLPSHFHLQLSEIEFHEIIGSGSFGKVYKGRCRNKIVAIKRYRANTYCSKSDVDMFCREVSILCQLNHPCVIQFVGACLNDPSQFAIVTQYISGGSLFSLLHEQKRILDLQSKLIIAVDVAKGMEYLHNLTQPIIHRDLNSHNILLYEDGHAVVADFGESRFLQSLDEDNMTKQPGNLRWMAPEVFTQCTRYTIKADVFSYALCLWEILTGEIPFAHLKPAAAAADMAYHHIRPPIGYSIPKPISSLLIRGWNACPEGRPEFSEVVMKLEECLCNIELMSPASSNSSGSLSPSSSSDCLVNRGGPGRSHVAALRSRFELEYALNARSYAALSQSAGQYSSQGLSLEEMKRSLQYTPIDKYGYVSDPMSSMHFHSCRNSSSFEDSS

[3] = target: T2, Tyrosine-protein kinase Mer (Homo sapiens) (UniProt Q12866); experiment: Selectivity interaction (Kinase panel (DSF assay)) EUB0001559a MERTK
T2 sequence (whole entry): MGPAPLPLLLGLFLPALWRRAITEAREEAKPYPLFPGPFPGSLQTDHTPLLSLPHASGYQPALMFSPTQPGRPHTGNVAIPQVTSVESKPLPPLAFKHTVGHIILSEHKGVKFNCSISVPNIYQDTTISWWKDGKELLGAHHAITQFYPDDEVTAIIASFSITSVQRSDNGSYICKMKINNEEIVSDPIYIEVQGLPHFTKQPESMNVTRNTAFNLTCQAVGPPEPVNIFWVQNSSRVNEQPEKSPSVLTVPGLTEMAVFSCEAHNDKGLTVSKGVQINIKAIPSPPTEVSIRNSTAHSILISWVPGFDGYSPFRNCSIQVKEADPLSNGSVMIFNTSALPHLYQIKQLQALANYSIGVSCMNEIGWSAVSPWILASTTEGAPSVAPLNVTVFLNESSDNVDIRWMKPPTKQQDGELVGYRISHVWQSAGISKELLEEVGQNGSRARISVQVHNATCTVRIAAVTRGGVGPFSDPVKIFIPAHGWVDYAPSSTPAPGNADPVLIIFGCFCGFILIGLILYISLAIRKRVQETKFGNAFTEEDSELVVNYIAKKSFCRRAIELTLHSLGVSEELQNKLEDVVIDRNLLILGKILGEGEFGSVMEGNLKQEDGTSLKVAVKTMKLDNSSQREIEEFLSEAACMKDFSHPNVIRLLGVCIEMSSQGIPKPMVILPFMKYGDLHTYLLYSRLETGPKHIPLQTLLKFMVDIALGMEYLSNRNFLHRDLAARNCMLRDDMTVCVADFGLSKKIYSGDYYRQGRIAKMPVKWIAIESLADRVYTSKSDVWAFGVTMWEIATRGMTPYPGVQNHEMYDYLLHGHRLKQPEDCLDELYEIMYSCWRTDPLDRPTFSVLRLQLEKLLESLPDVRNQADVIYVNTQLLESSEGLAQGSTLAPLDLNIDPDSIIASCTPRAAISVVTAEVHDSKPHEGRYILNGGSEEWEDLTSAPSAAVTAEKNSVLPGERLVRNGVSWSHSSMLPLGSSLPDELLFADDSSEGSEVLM

[4] = target: Proto-oncogene tyrosine-protein kinase Src (Homo sapiens, UniProt P12931); experiment: Selectivity interaction (Kinase panel (DSF assay)) EUB0001559a SRC
Proto-oncogene tyrosine-protein kinase Src, sequence (P12931 2-536 limits assumed): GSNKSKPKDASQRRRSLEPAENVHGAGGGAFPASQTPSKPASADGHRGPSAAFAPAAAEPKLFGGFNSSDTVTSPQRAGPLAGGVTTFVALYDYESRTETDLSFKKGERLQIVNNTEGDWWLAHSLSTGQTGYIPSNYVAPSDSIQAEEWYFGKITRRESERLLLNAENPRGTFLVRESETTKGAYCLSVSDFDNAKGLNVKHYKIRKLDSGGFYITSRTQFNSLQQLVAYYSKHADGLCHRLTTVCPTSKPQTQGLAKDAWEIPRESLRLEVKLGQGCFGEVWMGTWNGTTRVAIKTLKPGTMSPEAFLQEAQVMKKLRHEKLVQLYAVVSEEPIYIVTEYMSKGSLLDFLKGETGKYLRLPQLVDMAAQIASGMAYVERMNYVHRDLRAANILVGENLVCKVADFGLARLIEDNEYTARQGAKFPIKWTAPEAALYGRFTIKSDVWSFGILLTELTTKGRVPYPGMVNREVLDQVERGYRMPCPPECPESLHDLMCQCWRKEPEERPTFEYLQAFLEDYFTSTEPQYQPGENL

[5] = target: Activin receptor type-2B (Homo sapiens) (UniProt Q13705); experiment: Selectivity interaction (KinomeScan (DiscoverX)) EUB0000092b ACVR2B; conditions: at 10 µM
Activin receptor type-2B (Homo sapiens), sequence (Q13705 whole entry): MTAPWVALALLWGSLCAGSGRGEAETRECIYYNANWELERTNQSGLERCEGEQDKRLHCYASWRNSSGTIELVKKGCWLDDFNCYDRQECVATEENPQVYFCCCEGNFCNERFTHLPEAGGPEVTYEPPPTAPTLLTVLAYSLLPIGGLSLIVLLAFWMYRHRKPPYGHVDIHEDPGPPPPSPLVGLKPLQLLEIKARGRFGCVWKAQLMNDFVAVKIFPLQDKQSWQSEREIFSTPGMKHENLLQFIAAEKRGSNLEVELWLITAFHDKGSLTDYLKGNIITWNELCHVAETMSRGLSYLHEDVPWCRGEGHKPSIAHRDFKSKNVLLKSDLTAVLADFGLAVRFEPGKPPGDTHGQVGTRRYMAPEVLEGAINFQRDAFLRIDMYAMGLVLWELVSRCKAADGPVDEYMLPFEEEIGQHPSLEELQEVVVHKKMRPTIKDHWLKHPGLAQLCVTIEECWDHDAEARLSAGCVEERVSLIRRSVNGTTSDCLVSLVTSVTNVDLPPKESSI

[6] = target: Tyrosine-protein kinase receptor UFO (Homo sapiens) (UniProt P30530); conditions: at 10 µM
Tyrosine-protein kinase receptor UFO (Homo sapiens), sequence (P30530 whole entry): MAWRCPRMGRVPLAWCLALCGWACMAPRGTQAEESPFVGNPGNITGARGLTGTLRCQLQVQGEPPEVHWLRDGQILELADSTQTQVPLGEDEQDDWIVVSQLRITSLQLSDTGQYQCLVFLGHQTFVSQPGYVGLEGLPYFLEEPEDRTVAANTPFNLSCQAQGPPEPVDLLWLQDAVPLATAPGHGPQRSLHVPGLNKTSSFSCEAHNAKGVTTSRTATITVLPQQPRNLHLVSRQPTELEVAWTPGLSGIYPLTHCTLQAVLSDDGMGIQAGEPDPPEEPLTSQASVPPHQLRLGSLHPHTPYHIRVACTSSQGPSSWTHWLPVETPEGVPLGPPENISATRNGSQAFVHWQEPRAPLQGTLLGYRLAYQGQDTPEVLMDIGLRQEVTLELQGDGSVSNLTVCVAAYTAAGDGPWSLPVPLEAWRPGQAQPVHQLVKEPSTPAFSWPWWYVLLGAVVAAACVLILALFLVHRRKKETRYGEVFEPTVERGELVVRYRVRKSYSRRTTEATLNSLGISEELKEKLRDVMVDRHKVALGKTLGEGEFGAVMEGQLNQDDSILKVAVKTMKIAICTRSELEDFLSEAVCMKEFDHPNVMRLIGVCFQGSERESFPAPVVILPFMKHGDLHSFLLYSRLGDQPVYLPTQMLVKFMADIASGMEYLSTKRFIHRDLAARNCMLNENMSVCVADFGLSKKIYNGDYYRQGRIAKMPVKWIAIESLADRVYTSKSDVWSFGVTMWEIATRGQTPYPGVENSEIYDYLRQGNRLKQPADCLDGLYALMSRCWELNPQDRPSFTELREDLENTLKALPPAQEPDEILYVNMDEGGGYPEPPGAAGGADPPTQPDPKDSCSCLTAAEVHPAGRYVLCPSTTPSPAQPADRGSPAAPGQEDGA

5-hydroxytryptamine receptor 2B, sequence (P41595 whole entry): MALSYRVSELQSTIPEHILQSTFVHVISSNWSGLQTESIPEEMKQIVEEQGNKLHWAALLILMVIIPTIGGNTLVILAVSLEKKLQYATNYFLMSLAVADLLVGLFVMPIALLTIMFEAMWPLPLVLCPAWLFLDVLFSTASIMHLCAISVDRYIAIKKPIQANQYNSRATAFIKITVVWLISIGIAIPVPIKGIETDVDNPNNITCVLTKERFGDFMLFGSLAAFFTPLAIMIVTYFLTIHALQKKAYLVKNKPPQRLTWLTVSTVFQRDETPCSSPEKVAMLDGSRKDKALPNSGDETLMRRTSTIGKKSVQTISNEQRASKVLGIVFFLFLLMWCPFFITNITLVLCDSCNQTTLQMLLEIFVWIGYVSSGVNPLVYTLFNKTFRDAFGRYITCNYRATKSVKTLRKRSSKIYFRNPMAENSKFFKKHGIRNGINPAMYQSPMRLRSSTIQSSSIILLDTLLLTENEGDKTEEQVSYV
Activated CDC42 kinase 1, sequence (Q07912 whole entry, looked up): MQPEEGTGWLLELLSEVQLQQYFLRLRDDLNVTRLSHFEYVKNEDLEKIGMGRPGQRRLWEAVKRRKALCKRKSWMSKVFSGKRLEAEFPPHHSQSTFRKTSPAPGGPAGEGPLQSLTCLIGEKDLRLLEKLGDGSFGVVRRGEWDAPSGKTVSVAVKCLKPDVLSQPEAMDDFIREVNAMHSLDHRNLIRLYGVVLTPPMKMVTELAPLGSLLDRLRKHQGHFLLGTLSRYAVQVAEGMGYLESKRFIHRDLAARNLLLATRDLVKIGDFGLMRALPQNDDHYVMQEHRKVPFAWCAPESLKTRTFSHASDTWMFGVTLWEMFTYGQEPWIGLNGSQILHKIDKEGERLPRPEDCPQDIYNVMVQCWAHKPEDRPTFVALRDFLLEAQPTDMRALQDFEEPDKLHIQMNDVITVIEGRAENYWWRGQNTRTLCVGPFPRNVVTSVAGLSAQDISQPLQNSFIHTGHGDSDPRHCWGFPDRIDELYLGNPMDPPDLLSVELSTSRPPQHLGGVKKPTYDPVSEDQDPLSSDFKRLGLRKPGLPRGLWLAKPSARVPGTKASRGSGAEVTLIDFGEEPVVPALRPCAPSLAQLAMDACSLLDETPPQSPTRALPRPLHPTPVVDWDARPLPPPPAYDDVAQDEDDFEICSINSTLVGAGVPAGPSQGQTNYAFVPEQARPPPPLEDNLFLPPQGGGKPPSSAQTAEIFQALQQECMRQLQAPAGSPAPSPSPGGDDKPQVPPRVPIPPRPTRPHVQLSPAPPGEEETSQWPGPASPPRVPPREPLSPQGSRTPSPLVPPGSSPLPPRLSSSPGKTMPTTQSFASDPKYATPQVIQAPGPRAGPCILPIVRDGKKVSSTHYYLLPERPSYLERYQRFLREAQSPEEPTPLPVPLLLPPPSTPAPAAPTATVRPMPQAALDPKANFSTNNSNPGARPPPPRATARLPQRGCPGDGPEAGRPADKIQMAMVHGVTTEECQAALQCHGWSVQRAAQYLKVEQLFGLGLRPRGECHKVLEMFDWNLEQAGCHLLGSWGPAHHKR

`CC[C@@H](Nc1c(C#N)c(-c2ccc(-c3cccc(C)c3F)cc2)nc2cnccc12)C(=O)O` [BAY-091] showed a % of inhibition [1] of 98%.
Compound `CCN(CC)CCCCNc1ncc2cc(-c3cc(OC)cc(OC)c3)c(NC(=O)NC(C)(C)C)nc2n1` has a % of control (Activated CDC42 kinase 1) of 100%.
Compound `Cc1cc(F)c(C(=O)Nc2cccc(-c3nncn3C(C)C)n2)cc1-n1cnc(C2CC2)c1` has a % of control [2] of 100%.
`CN(C(=O)c1cnn2cccnc12)c1cc2c(cc1N1CCOCC1)C(=O)N(C[C@@H](F)C(C)(C)O)C2` gave a dTM [3] of 0.3 K and a dTM [4] of -0.3 K.
With `CCC(=O)N1CCN(c2ccc(-n3c(=O)ccc4cnc5ccc(-c6cnc7ccccc7c6)cc5c43)cc2C(F)(F)F)CC1` the % of control [5] was 42%.
For `Cc1cc([C@@H](C)Nc2ccccc2C(=O)O)c2nc(N3CCOCC3)cc(=O)n2c1` [AZD-6482], the % of control [6] was 86%.
